Results: patent publication US10913781B2, “Pepducin design and use” (Tufts Medical Center, Inc., priority 2011, dated 2021)
Peptide text beside a SMILES is read from it. * marks the point of attachment. Palmitoyl = CCCCCCCCCCCCCCCC(=O)*

Key:
[1] = tested on: mast cell tryptase; assay: Human neutrophil chemotaxis toward mast cell conditioned media (tryptase inhibitor); assay type: cell-based; details: 10 mM APC-366; 30 min
Description: (A) Mast cells were treated with 2 mg/mL of mast cell degranulating agent 48/80 or 2% 1-carrageenan/4% kaolin. […] (B) P2pal-18S inhibits human neutrophil chemotaxis (n=6) to mast cell media. Human neutrophils were incubated with […] P2pal-18S, or […] mast cell tryptase inhibitor APC-366 and allowed to migrate 30 min toward CM from mast cells. (C) C57BL/6 mice (n=5) were pretreated with the tryptase inhibitor APC-366 (5 mg/kg, s.c.) or vehicle (20% DMSO) and then challenged with intraplantar injection of 1-carrageenan/kaolin. (D) Mast cell conditioned media (30 μL of 1-carrageenan/kaolin stimulated media) was injected into the hindpaws of C57BL/6 mice treated with 10 mg/kg P2pal-18S or vehicle (n=5). Data represent mean±SEM. #, P=0.07, *, P<0.05 and **, P<0.005. (E) Mast cell-deficient mice have a significant reduction in 1-carrageenan/kaolin induced paw edema (8 h time point, n=4-6) as compared to littermate controls. Mast-cell deficient mice or littermate controls with intact mast cells were treated with P2pal-18S (10 mg/kg, s.c.) or vehicle and hind paws challenged with 1-carrageenan/kaolin irritant. Error bars represent mean±SEM. […]

[2] = molecular target: T1, mast cell tryptase (Mus musculus, UniProt P21845); assay: λ-carrageenan/kaolin-induced mouse paw edema (tryptase inhibitor); assay type: in vivo; details: C57BL/6 mice; 5 mg/kg s.c.
T1 construct: from tissue; host or cells: C57BL/6 mouse, hind paw in vivo
T1 sequence (P21845 32-276): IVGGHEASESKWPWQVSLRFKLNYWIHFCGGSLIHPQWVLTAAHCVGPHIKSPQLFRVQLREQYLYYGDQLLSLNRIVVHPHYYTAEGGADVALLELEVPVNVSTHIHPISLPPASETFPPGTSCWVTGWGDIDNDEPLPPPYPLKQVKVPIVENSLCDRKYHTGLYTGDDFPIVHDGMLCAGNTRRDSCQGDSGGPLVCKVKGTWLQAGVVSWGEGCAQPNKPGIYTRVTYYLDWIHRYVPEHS
Description: (A) Mast cells were treated with 2 mg/mL of mast cell degranulating agent 48/80 or 2% 1-carrageenan/4% kaolin. […] (B) P2pal-18S inhibits human neutrophil chemotaxis (n=6) to mast cell media. Human neutrophils were incubated with […] P2pal-18S, or […] mast cell tryptase inhibitor APC-366 and allowed to migrate 30 min toward CM from mast cells. (C) C57BL/6 mice (n=5) were pretreated with the tryptase inhibitor APC-366 (5 mg/kg, s.c.) or vehicle (20% DMSO) and then challenged with intraplantar injection of 1-carrageenan/kaolin. (D) Mast cell conditioned media (30 μL of 1-carrageenan/kaolin stimulated media) was injected into the hindpaws of C57BL/6 mice treated with 10 mg/kg P2pal-18S or vehicle (n=5). Data represent mean±SEM. #, P=0.07, *, P<0.05 and **, P<0.005. (E) Mast cell-deficient mice have a significant reduction in 1-carrageenan/kaolin induced paw edema (8 h time point, n=4-6) as compared to littermate controls. Mast-cell deficient mice or littermate controls with intact mast cells were treated with P2pal-18S (10 mg/kg, s.c.) or vehicle and hind paws challenged with 1-carrageenan/kaolin irritant. Error bars represent mean±SEM.
To examine whether mast cells and mast cell tryptase were activating PAR2 in the paw edema model in vivo, mice were depleted of mast cells through pretreatment with compound 48/80 (Carvalho M et al. Eur J Pharmacol (2005), 525: 161-169). […]

[3] = molecular target: T2, PAR2 (Homo sapiens, UniProt P55085); assay: Calcium flux screen for PAR2 pepducin agonist and antagonist activity in SW620 cells; assay type: cell-based; design: SW620 colon adenocarcinoma cells that endogenously express PAR2; endogenous in cells; host or cells: SW620 (in A7 the SW620 cells were additionally stably transfected with PAR1)
Target sequence in this assay (P55085 26-397): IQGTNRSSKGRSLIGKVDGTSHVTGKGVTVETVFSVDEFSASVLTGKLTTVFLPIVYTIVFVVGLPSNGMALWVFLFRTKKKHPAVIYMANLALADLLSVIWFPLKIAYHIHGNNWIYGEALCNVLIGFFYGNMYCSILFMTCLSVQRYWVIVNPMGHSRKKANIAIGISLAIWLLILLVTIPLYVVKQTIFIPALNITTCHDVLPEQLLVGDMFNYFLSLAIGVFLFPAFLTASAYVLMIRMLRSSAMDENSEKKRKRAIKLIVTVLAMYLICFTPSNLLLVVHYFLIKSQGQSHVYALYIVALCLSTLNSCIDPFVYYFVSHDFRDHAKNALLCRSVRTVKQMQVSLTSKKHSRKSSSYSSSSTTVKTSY
Description: (§2) (A) Agonist and antagonist activity of third intracellular (i3) loop PAR2 pepducins (structure shown on top) using calcium flux assays with SW620 colon adenocarcinoma cells that endogenously express PAR2. Each column of three calcium flux traces corresponds to the i3 pepducin sequence shown above. The top row is the agonist activity of 3-4 μM pepducin and the middle row is the agonist activity of 14-15 μM pepducin. […] Final concentration of DMSO vehicle was 0.2%. […] (C) Agonist activity for each pepducin from (A) is reported as initial velocity of calcium flux at 4 μM pepducin (†), or at 14-15 μM pepducin (‡).

[4] = molecular target: T3, PAR4 (Homo sapiens, UniProt Q96RI0); assay: [3H]-InsP formation in COS7 cells transfected with PAR4; assay type: cell-based; design: expressed in transfected cells; host or cells: COS7; details: 100 μM AYPGKF, 30 min
T3 sequence (Q96RI0 18-385): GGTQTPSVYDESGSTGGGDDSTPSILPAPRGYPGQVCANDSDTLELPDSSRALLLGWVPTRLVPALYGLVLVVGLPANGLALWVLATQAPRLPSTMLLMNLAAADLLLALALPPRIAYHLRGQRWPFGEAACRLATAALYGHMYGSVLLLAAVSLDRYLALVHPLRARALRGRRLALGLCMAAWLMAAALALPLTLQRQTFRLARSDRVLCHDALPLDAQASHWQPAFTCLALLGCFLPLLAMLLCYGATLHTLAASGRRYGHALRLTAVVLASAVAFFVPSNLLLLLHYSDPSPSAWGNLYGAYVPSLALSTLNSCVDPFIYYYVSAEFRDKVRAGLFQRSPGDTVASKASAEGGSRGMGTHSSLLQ
Description: (§1) (A) PAR2 antagonist pepducins P2pal-18S and P2pal-14GQ inhibit calcium flux induced by PAR2 (SLIGRL) (SEQ ID NO:4) but not PAR1 (TFLLRN) (SEQ ID NO:2) agonists. SW620 cells were stably transfected with PAR1 and pretreated for 1 min with various concentrations of P2pal-18S or P2pal-14GQ and then stimulated with 30 μM PAR agonist. […] Cells were stimulated with 1 μM TFLLRN (SEQ ID NO:2), 1 μM SLIGRL (SEQ ID NO:4) or 100 μM AYPGKF (SEQ ID NO:5) and [^3H]-InsP formation measured over 30 min. (C) SW620 cells were treated with the indicated concentrations of P2pal-18S or P2pal-14GQ in the upper well of an 8-μm pore Boyden chamber and allowed to migrate for 18 h towards 10 μM of the PAR2 specific agonist SLIGRL in the lower chamber. The migration to RPMI/0.1% FBS represents random migration. (D) Migration of HEK cells transiently transfected with PAR2 (wild-type, WT), or PAR2-R36A/PAR2-RQ toward chemotactic gradients of 30 nM trypsin in the absence or presence of the indicated concentration of P2pal-18S for 18 h in a transwell apparatus ([…]). Data (n=2-4) are mean±SEM. *, P<0.05 and **, P<0.005.

[5] = molecular target: T2, PAR2; assay: Agonist | (%)^‡; design: SW620 colon adenocarcinoma cells that endogenously express PAR2; endogenous in cells; host or cells: SW620 (in A7 the SW620 cells were additionally stably transfected with PAR1)
Target sequence in this assay (P55085 26-397 limits assumed): as the sequence (P55085 26-397) above

[6] = molecular target: T4, PAR1 (Homo sapiens, UniProt P25116); assay: [3H]-InsP formation in COS7 cells transfected with PAR1; assay type: cell-based; design: expressed in transfected cells; host or cells: COS7; details: 1 μM TFLLRN, 30 min
T4 sequence (P25116 22-425): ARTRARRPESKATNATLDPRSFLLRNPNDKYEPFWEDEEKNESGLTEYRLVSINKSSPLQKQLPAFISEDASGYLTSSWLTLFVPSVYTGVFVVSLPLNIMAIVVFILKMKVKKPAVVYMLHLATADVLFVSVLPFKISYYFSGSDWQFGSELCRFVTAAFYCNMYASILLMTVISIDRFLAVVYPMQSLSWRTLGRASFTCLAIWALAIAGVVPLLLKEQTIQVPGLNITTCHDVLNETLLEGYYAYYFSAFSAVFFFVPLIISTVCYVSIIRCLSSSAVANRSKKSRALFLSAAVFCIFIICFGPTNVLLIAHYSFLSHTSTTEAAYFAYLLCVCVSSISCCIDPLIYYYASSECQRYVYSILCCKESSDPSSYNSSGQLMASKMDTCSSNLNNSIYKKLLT
Description: as §1

[7] = molecular target: T2, PAR2; assay: SW620 cell migration toward SLIGRL (Boyden chamber, 18 h); assay type: cell-based; design: SW620 colon adenocarcinoma cells that endogenously express PAR2; endogenous in cells; host or cells: SW620 (in A7 the SW620 cells were additionally stably transfected with PAR1); details: 10 μM SLIGRL
Description: as §1
Target sequence in this assay (P55085 26-397): as the sequence (P55085 26-397) above

[8] = molecular target: T2, PAR2; assay: Agonist | (%)^†; design: SW620 colon adenocarcinoma cells that endogenously express PAR2; endogenous in cells; host or cells: SW620 (in A7 the SW620 cells were additionally stably transfected with PAR1); details: 4 µM
Target sequence in this assay (P55085 26-397 limits assumed): as the sequence (P55085 26-397) above
Description: as §2

[9] = molecular target: T4, PAR1; assay: Calcium flux in SW620 cells stably transfected with PAR1, TFLLRN stimulus; assay type: cell-based; details: 30 μM TFLLRN
Description: as §1

[10] = molecular target: T4, PAR1; assay: Lung cancer cell line migration toward NIH-3T3 conditioned media (Boyden chamber); assay type: cell-based; design: endogenous in cells; host or cells: A549, HOP62, H1299, H522, H226, HOP92 lung carcinoma lines; details: A549, HOP62, H1299; pepducins in lower well
Excerpt: FIG. 11 illustrates PAR expression profile in lung cancer. Lung cancer cell lines (n=7) from the NCI-60 panel were characterized for surface expression of PAR1, PAR2, PAR3, and PAR4 (A) as previously described in Nguyen et al., 2006. (B): PAR mRNA expression profile in patient samples. Quantitative real-time PCR analysis of PAR1 to PAR4 (corrected for actin expression as internal control) and expressed as fold increase over nonmalignant lung tissue. Migration of lung carcinoma cell lines toward fibroblast conditioned media is expressed as cell number ±SD. (C): Silencing of PAR1 expression in A549 and HOP62 cells with shPAR1 or vector control. Surface expression of PAR1 was determined by flow cytometry using SFLLR-Ab. (D): Migration of A549 and HOP62 lung cancer cells toward NIH-3T3 conditioned media supplemented with RWJ-56110 (10 μmol/L) and SCH7979 (50 μmol/L) or vehicle (0.2% dimethyl sulfoxide). Migration of lung cancer cells treated with shPAR1 treatment or appropriate controls toward NIH-3T3 conditioned media. Basal migration toward conditioned media (vehicle treated or vector control) was normalized to 100%. *P<0.05, **P<0.01.
FIG. 12 illustrates that PAR1 is a promigratory factor in lung cancer cells. […] (G): Cell from primary lung tumors or nonmalignant control were pretreated with PAR1 pepducins and migration was determined (*P<0.05, **P<0.01). […]

NC(=O)[C@@H]1CCCN1C(=O)[C@H](CCCN=C(N)N)NC(=O)c1ccc2ccccc2c1O [APC-366]
Inhibition of chemotactic migration toward tryptase-containing mast cell media [1]: completely inhibited
Protection in λ-carrageenan/kaolin-induced paw edema [2]: 40%

CCCCCCCCCCCCCCCC(=O)NCC(=O)N[C@@H](CC(=O)O)C(=O)N[C@@H](CCC(=O)O)C(=O)N[C@@H](CC(N)=O)C(=O)N[C@@H](CO)C(=O)N[C@@H](CCC(=O)O)C(=O)N[C@@H](CCCCN)C(=O)N[C@@H](CCCCN)C(=O)N[C@@H](CCCNC(=N)N)C(=O)N[C@@H](CCCCN)C(=O)N[C@@H](CCC(N)=O)C(=O)N[C@@H](C)C(=O)N[C@H](C(=O)N[C@@H](CCCCN)C(N)=O)[C@@H](C)CC [P2pal-14GQ] (Palmitoyl-GDENSEKKRKQAIK-NH2)
Antagonist activity (inhibition of SLIGRL calcium flux, area under the curve) ([3]; 6 μM pepducin, 1 min pretreatment, against 100 μM SLIGRL): 53%
Agonist activity (calcium flux) ([3]; 3-4 μM and 14-15 μM pepducin): agonist activity remained insignificant or insubstantial
Inhibition of InsP signaling from PAR4 [4]: do not inhibit
Agonist | (%)^‡ [5]: 2%
Inhibition of InsP signaling from PAR1 [6]: do not inhibit
Suppression of SW620 migration to SLIGRL [7]: not as efficacious in suppressing migration of SW620 cells to SLIGRL as compared to P2pal-18S
Agonist | (%)^† [8]: 3%
Inhibition of PAR1 calcium flux [9]: selective for PAR2 and not PAR1

P1pal-19EE: negative control PAR1 i3 pepducin, 19 residues, S309 to E and A311 to E; SEQ ID NO:27 (Palmitoyl-ECESSSAEANRSKKERELF-NH2)
Suppression of migration of PAR1-expressing adenocarcinomas [10]: no effect on migration
